From US20100056563A1, “NOVEL 1.8-NAPHTHYRIDINE COMPOUNDS” (priority 2007, published 2010)

Target: T1, FLAG-tagged full length PHD2 (Homo sapiens, UniProt Q9GZT9)
T1 construct: FLAG-tagged full length PHD2; FLAG; made in house; host or cells: baculovirus-infected Sf9 cells
Experiment: HIF-PHD2 time resolved fluorescence inhibition assay (HIF-1α peptide hydroxylation, VHL complex detection)
Format: biochemical
Settings: 0.2 μM 2-oxoglutarate, 0.5 μM HIF-1α peptide, 2 hr at room temperature
Method: To each well of a 96-well plate was added […] of test compound in DMSO and 20 μl of assay buffer (50 mM Tris pH 7.4/0.01% Tween-20/0.1 mg/ml bovine serum albumin/10 μM ferrous sulfate/1 mM sodium ascorbate/20 μg/ml catalase) containing 0.15 μg/ml FLAG-tagged full length PHD2 expressed in and purified from baculovirus-infected Sf9 cells. After a […] preincubation at room temperature, the enzymatic reactions were initiated by the addition of 4 μL of substrates (final concentrations of 0.2 μM 2-oxoglutarate and 0.5 μM HIF-1α peptide biotinyl-DLDLEMLAPYIPMDDDFQL). After 2 hr at room temperature, the reactions were terminated and signals were developed by the addition of a 25 μL quench/detection mix to a final concentration of 1 mM ortho-phenanthroline, 0.1 mM EDTA, 0.5 nM anti-(His)6 LANCE reagent (Perkin-Elmer Life Sciences), 100 nM AF647-labeled streptavidin (Invitrogen), and 2 μg/ml (His)6-VHL complex (S. Tan (2001) Protein Expr. Purif. 21, 224-234). The ratio of time resolved fluorescence signals at 665 and 620 nm was determined, and percent inhibition was calculated relative to an uninhibited control sample run in parallel.

T1 sequence (Q9GZT9 whole entry): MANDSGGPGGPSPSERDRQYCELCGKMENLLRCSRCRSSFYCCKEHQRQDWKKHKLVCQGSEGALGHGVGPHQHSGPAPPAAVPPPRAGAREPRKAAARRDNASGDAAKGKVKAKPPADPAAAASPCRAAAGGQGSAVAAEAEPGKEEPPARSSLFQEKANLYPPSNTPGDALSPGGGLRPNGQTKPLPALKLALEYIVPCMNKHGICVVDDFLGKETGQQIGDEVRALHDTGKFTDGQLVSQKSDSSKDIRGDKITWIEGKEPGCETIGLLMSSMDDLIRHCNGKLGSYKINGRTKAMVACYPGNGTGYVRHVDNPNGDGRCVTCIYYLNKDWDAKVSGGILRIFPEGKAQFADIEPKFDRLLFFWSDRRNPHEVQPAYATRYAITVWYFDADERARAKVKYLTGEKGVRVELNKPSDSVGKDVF

| Structure (SMILES) | IC50 |
| --- | --- |
| O=C(O)CNC(=O)c1c(O)c2cccnc2n(Cc2ccc(C(F)(F)F)cc2)c1=O [Example 1, N-({4-Hydroxy-2-oxo-1-[4-(trifluoromethyl)benzyl]-1,2-dihydro-1,8-naphthyridin-3-yl}carbonyl)glycine] | 2.1 nM |
| O=C(O)CNC(=O)c1c(O)c2cccnc2n(Cc2ccc(Cl)cc2)c1=O [Example 2, N-{[1-(4-Chlorobenzyl)-4-hydroxy-2-oxo-1,2-dihydro-1,8-naphthyridin-3-yl]carbonyl}glycine] | 1.6 nM |
| O=C(O)CNC(=O)c1c(O)c2cccnc2n(Cc2ccc(Br)cc2)c1=O [Example 3, N-{[1-(4-Bromobenzyl)-4-hydroxy-2-oxo-1,2-dihydro-1,8-naphthyridin-3-yl]carbonyl}glycine] | 1.9 nM |
| N#Cc1ccc(Cn2c(=O)c(C(=O)NCC(=O)O)c(O)c3cccnc32)cc1 [Example 4, N-{[1-(4-Cyanobenzyl)-4-hydroxy-2-oxo-1,2-dihydro-1,8-naphthyridin-3-yl]carbonyl}glycine] | 1.6 nM |
| Cc1ccc(Cn2c(=O)c(C(=O)NCC(=O)O)c(O)c3cccnc32)cc1 [Example 5, N-{[1-(4-Methylbenzyl)-4-hydroxy-2-oxo-1,2-dihydro-1,8-naphthyridin-3-yl]carbonyl}glycine] | 1.8 nM |
| O=C(O)CNC(=O)c1c(O)c2cccnc2n(Cc2ccc(C(F)(F)F)cc2F)c1=O [Example 6, N-{[1-(2-Fluoro-4-trifluoromethylbenzyl)-4-hydroxy-2-oxo-1,2-dihydro-1,8-naphthyridin-3-yl]carbonyl}glycine] | 1.6 nM |
| COc1ccc2c(O)c(C(=O)NCC(=O)O)c(=O)n(Cc3ccc(C(F)(F)F)cc3)c2n1 [Example 7, N-({4-Hydroxy-7-methoxy-2-oxo-1-[4-(trifluoromethyl)benzyl]-1,2-dihydro-1,8-naphthyridin-3-yl}carbonyl)glycine] | 1.5 nM |
| O=C(O)CNC(=O)c1c(O)c2cccnc2n(Cc2nc3ccccc3s2)c1=O [Example 8, N-{[1-(1,3-Benzothiazol-2-ylmethyl)-4-hydroxy-2-oxo-1,2-dihydro-1,8-naphthyridin-3-yl]carbonyl}glycine] | 0.7 nM |
| O=C(O)CNC(=O)c1c(O)c2cc(I)cnc2n(Cc2ccc(C(F)(F)F)cc2)c1=O [Example 9, N-({4-Hydroxy-6-iodo-2-oxo-1-[4-(trifluoromethyl)benzyl]-1,2-dihydro-1,8-naphthyridin-3-yl}carbonyl)glycine] | 1.3 nM |
| N#Cc1cnc2c(c1)c(O)c(C(=O)NCC(=O)O)c(=O)n2Cc1ccc(C(F)(F)F)cc1 [Example 10, N-({6-Cyano-4-hydroxy-2-oxo-1-[4-(trifluoromethyl)benzyl]-1,2-dihydro-1,8-naphthyridin-3-yl}carbonyl)glycine] | 1.2 nM |
| C[C@H](NC(=O)c1c(O)c2cccnc2n(Cc2ccc(C(F)(F)F)cc2)c1=O)C(=O)O [Example 11, N-({4-Hydroxy-2-oxo-1-[4-(trifluoromethyl)benzyl]-1,2-dihydro-1,8-naphthyridin-3-yl}carbonyl)-L-alanine] | 6 nM |
| C[C@@H](NC(=O)c1c(O)c2cccnc2n(Cc2ccc(C(F)(F)F)cc2)c1=O)C(=O)O [Example 12, N-({4-Hydroxy-2-oxo-1-[4-(trifluoromethyl)benzyl]-1,2-dihydro-1,8-naphthyridin-3-yl}carbonyl)-D-alanine] | 1100 nM |
| NC(=O)c1ccc(Cn2c(=O)c(C(=O)NCC(=O)O)c(O)c3cccnc32)cc1 [Example 13, N-({1-[4-(Aminocarbonyl)benzyl]-4-hydroxy-2-oxo-1,2-dihydro-1,8-naphthyridin-3-yl}carbonyl)glycine] | 1.2 nM |
| O=C(N[C@@H](CO)C(=O)O)c1c(O)c2cccnc2n(Cc2ccc(C(F)(F)F)cc2)c1=O [Example 14, N-({1-[4-(trifluoromethyl)benzyl]-4-hydroxy-2-oxo-1,2-dihydro-1,8-naphthyridin-3-yl}carbonyl)-L-serine] | 160 nM |
| O=C(O)C[C@H](NC(=O)c1c(O)c2cccnc2n(Cc2ccc(C(F)(F)F)cc2)c1=O)C(=O)O [Example 15, N-({1-[4-(trifluoromethyl)benzyl]-4-hydroxy-2-oxo-1,2-dihydro-1,8-naphthyridin-3-yl}carbonyl)-L-aspartic acid] | 25 nM |
| CC[C@H](NC(=O)c1c(O)c2cccnc2n(Cc2ccc(C(F)(F)F)cc2)c1=O)C(=O)O [Example 17, (2S)-2-[({4-Hydroxy-2-oxo-1-[4-(trifluoromethyl)benzyl]-1,2-dihydro-1,8-naphthyridin-3-yl}carbonyl)amino]butanoic acid] | 160 nM |

| Structure (SMILES) | IC50 |
| --- | --- |
| C#CCn1c(=O)c(C(=O)NCC(=O)O)c(O)c2cccnc21 [Example 18, N-[(4-Hydroxy-2-oxo-1-prop-2-yn-1-yl-1,2-dihydro-1,8-naphthyridin-3-yl)carbonyl]glycine] | 21 nM |
| O=C(O)CNC(=O)c1c(O)c2cccnc2n(Cc2cc(-c3ccccc3)no2)c1=O [Example 19, N-({4-Hydroxy-2-oxo-1-[(3-phenylisoxazol-5-yl)methyl]-1,2-dihydro-1,8-naphthyridin-3-yl}carbonyl)glycine] | 0.4 nM |
| O=C(O)CNC(=O)c1c(O)c2cccnc2n(Cc2noc(-c3ccccc3)n2)c1=O [Example 20, N-({4-Hydroxy-2-oxo-1-[(5-phenyl-1,2,4-oxadiazol-3-yl)methyl]-1,2-dihydro-1,8-naphthyridin-3-yl}carbonyl)glycine] | 0.9 nM |
| O=C(O)CNC(=O)c1c(O)c2cccnc2n(Cc2nc(-c3ccccc3)no2)c1=O [Example 21, N-({4-Hydroxy-2-oxo-1-[(3-phenyl-1,2,4-oxadiazol-5-yl)methyl]-1,2-dihydro-1,8-naphthyridin-3-yl}carbonyl)glycine] | 0.8 nM |
| O=C(O)CNC(=O)c1c(O)c2cccnc2n(Cc2nc(-c3ccccc3)cs2)c1=O [Example 22, N-({4-Hydroxy-2-oxo-1-[(4-phenyl-1,3-thiazol-2-yl)methyl]-1,2-dihydro-1,8-naphthyridin-3-yl}carbonyl)glycine] | 0.8 nM |
| CCOC(=O)Cn1c(=O)c(C(=O)NCC(=O)O)c(O)c2cccnc21 [Example 23, N-{[1-(2-Ethoxy-2-oxoethyl)-4-hydroxy-2-oxo-1,2-dihydro-1,8-naphthyridin-3-yl]carbonyl}glycine] | 8.5 nM |
| O=C(O)CNC(=O)c1c(O)c2cccnc2n(Cc2nc3cc(Cl)ccc3s2)c1=O [Example 24, N-({1-[(5-Chloro-1,3-benzothiazol-2-yl)methyl]-4-hydroxy-2-oxo-1,2-dihydro-1,8-naphthyridin-3-yl}carbonyl)glycine] | 1.1 nM |
| CC(C)(C)c1csc(Cn2c(=O)c(C(=O)NCC(=O)O)c(O)c3cccnc32)n1 [Example 25, N-({1-[(4-tert-Butyl-1,3-thiazol-2-yl)methyl]-4-hydroxy-2-oxo-1,2-dihydro-1,8-naphthyridin-3-yl}carbonyl)glycine] | 2 nM |
| Cc1nc(Cn2c(=O)c(C(=O)NCC(=O)O)c(O)c3cccnc32)sc1C [Example 26, N-({1-[(4,5-Dimethyl-1,3-thiazol-2-yl)methyl]-4-hydroxy-2-oxo-1,2-dihydro-1,8-naphthyridin-3-yl}carbonyl)glycine] | 1.3 nM |
| O=C(O)CNC(=O)c1c(O)c2cccnc2n(Cc2nnc(-c3ccccc3)o2)c1=O [Example 27, N-({4-Hydroxy-2-oxo-1-[(5-phenyl-1,3,4-oxadiazol-2-yl)methyl]-1,2-dihydro-1,8-naphthyridin-3-yl}carbonyl)glycine] | 2.6 nM |
| O=C(O)CNC(=O)c1c(O)c2cccnc2n(Cc2ccc(C(F)(F)F)nc2)c1=O [Example 28, {[(4-Hydroxy-2-oxo-1-{[6-(trifluoromethyl)pyridin-3-yl]methyl}-1,2-dihydro-1,8 naphthyridin-3-yl)carbonyl}amino}acetic acid] | 0.85 nM |
| O=C(O)CNC(=O)c1c(O)c2cc(Cl)cnc2n(Cc2ccc(C(F)(F)F)nc2)c1=O [Example 29, {[(6-Chloro-4-hydroxy-2-oxo-1-{[6-(trifluoromethyl)pyridin-3-yl]methyl}-1,2-dihydro-1,8 naphthyridin-3-yl)carbonyl]amino}acetic acid] | 0.65 nM |
| C[C@H](NC(=O)c1c(O)c2cccnc2n(Cc2nc3ccccc3s2)c1=O)C(=O)O [Example 30, (2S)-2-({[1-(1,3-Benzothiazol-2-ylmethyl)-4-hydroxy-2-oxo-1,2-dihydro-1,8-naphthyridin-3-yl]carbonyl}amino)propanoic acid] | 2.7 nM |
| C[C@H](NC(=O)c1c(O)c2cccnc2n(Cc2nc3cc(Cl)ccc3s2)c1=O)C(=O)O [Example 35, (2S)-2-[({1-[(5-Chloro-1,3-benzothiazol-2-yl)methyl]-4-hydroxy-2-oxo-1,2-dihydro-1,8-naphthyridin-3-yl}carbonyl)amino]propanoic acid] | 5.9 nM |
| C[C@H](NC(=O)c1c(O)c2cccnc2n(Cc2ccc(C(F)(F)F)nc2)c1=O)C(=O)O [Example 38, (2S)-2-{[(4-Hydroxy-2-oxo-1-{[6-(trifluoromethyl)pyridin-3-yl]methyl}-1,2-dihydro-1,8-naphthyridin-3-yl)carbonyl]amino}propanoic acid] | 2.7 nM |
| C[C@H](NC(=O)c1c(O)c2cccnc2n(Cc2ccc(C(F)(F)F)cc2F)c1=O)C(=O)O [Example 39, (2S)-2-[({1-[2-Fluoro-4-(trifluoromethyl)benzyl]-4-hydroxy-2-oxo-1,2-dihydro-1,8-naphthyridin-3-yl}carbonyl)amino]propanoic acid] | 8.2 nM |
